Assays:
[1] = molecular target: X-linked inhibitor of apoptosis protein (XIAP) (Homo sapiens, UniProt P98170); test: competitive fluorescence polarization with ARPF-FAM probe; assay type: binding
[2] = molecular target: ARPF-K(5-Fam)-NH2-peptide; test: fluorescence polarisation

X-linked inhibitor of apoptosis protein (XIAP), sequence (P98170 238-359): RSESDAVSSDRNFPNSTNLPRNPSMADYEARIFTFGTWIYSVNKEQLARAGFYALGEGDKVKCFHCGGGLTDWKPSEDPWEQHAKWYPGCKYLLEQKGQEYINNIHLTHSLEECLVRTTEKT

| Ki [1] | Kd [2] | Compound |
| --- | --- | --- |
| 22.3 µM |  | CCCCCCCCCCCC1=C(O)C(=O)C=C(O)C1=O [embelin] |
|  | 145 nM | recombinant XIAP-BIR3 domain protein (domain or fragment) |
